This is an account of results in US20230123334A1, “AMINO LIPID COMPOUND, PREPARATION METHOD THEREFOR, AND APPLICATION THEREOF” (SHENZHEN SHENXIN BIOTECHNOLOGY CO., LTD., priority 2020, published 2023).

The experiment concerns HEK293 cells. Put plainly: Preliminary screening as DNA vectors, GFP transfection of HEK293 cells. The format is cell-based. Particulars: amino lipid/DOPE liposome with 75 ng plasmid DNA (psin-EGFP-IRES-Puro); number of GFP-expressing cells divided by total nuclei (Hoechst). In outline: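 First, amino lipid and DOPE were vortexed in sodium acetate buffer (pH 5.6) to form liposomes. Next, these were held with 75 ng EGFP plasmid at room temperature for 30 min. Finally, HEK293 cells were added, cultured at 37° C., Hoechst-stained, and GFP+/total nuclei scored by imaging.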

Molecules are shown by their SMILES.

For the compound `CCCCCCCCCNc1nc(NCCN2CCN(C)CC2)nc(SCCCCCCC)n1` [S7N9 D5], the “Absolute DNA transfection efficiency in HEK293 cells” value (“Absolute DNA transfection efficiency” below) came out at 22.0%. In the case of `CCCCCCCCCNc1nc(NCCCN(C)C)nc(SCCCCCCC)n1` [S7N9 D6], the “Absolute DNA transfection efficiency” value was 25.9%. To `CCCCCCCCCNc1nc(NCCN(CC)CC)nc(SCCCCCCC)n1` [S7N9 D7] belongs 33.2%; to `CCCCCCCCCNc1nc(NCCCN2CCOCC2)nc(SCCCCCCC)n1` [S7N9 D8], 4.6%; to `CCCCCCCCCNc1nc(NCCCN2CCN(C)CC2)nc(SCCCCCCC)n1` [S7N9 D9], 22.8%. The figure for `CCCCCCCCCNc1nc(NCC2CCN(C)CC2)nc(SCCCCCCC)n1` [S7N9 D10] is 15.0%; for `CCCCCCCCCCCNc1nc(NCCN(C)C)nc(SCCCCCCC)n1` [S7N11 D1] it is 20.3%; for `CCCCCCCCCCCNc1nc(NCCN2CCOCC2)nc(SCCCCCCC)n1` [S7N11 D2] it is 31.1%.

Consider `CCCCCCCCCCCNc1nc(NCCN2CCCC2)nc(SCCCCCCC)n1` [S7N11 D3], for which the “Absolute DNA transfection efficiency” value was 25.3%.

As to `CCCCCCCCCCCNc1nc(NCCN2CCCCC2)nc(SCCCCCCC)n1` [S7N11 D4], the “Absolute DNA transfection efficiency” value was 6.9%. For the compound `CCCCCCCCCCCNc1nc(NCCN2CCN(C)CC2)nc(SCCCCCCC)n1` [S7N11 D5], the “Absolute DNA transfection efficiency” value came out at 43.7%. The figure for `CCCCCCCCCCCNc1nc(NCCCN(C)C)nc(SCCCCCCC)n1` [S7N11 D6] is 42.1%; for `CCCCCCCCCCCNc1nc(NCCN(CC)CC)nc(SCCCCCCC)n1` [S7N11 D7] it is 9.6%; for `CCCCCCCCCCCNc1nc(NCCCN2CCOCC2)nc(SCCCCCCC)n1` [S7N11 D8] it is 13.9%. To `CCCCCCCCCCCNc1nc(NCCCN2CCN(C)CC2)nc(SCCCCCCC)n1` [S7N11 D9] belongs 43.9%. The figure for `CCCCCCCCCCCNc1nc(NCC2CCN(C)CC2)nc(SCCCCCCC)n1` [S7N11 D10] is 45.9%; for `CCCCCCCCCCCCNc1nc(NCCN(C)C)nc(SCCCCCCC)n1` [S7N12 D1] it is 18.2%. Take `CCCCCCCCCCCCNc1nc(NCCN2CCOCC2)nc(SCCCCCCC)n1` [S7N12 D2]: the “Absolute DNA transfection efficiency” value stood at 25.6%. With `CCCCCCCCCCCCNc1nc(NCCN2CCCC2)nc(SCCCCCCC)n1` [S7N12 D3], the “Absolute DNA transfection efficiency” value turned out to be 17.4%. To `CCCCCCCCCCCCNc1nc(NCCN2CCCCC2)nc(SCCCCCCC)n1` [S7N12 D4] belongs 9.7%; to `CCCCCCCCCCCCNc1nc(NCCN2CCN(C)CC2)nc(SCCCCCCC)n1` [S7N12 D5], 35.1%.

As to `CCCCCCCCCCCCNc1nc(NCCCN(C)C)nc(SCCCCCCC)n1` [S7N12 D6], the “Absolute DNA transfection efficiency” value is given as 54.6%. To `CCCCCCCCCCCCNc1nc(NCCN(CC)CC)nc(SCCCCCCC)n1` [S7N12 D7] belongs 5.5%; to `CCCCCCCCCCCCNc1nc(NCCCN2CCOCC2)nc(SCCCCCCC)n1` [S7N12 D8], 17.7%; to `CCCCCCCCCCCCNc1nc(NCCCN2CCN(C)CC2)nc(SCCCCCCC)n1` [S7N12 D9], 46.4%. The figure for `CCCCCCCCCCCCNc1nc(NCC2CCN(C)CC2)nc(SCCCCCCC)n1` [S7N12 D10] is 45.7%; for `CCCCCCCCCCCCCNc1nc(NCCN(C)C)nc(SCCCCCCC)n1` [S7N13 D1] it is 11.7%. In the case of `CCCCCCCCCCCCCNc1nc(NCCN2CCOCC2)nc(SCCCCCCC)n1` [S7N13 D2], the “Absolute DNA transfection efficiency” value is on record as 22.1%. As for `CCCCCCCCCCCCCNc1nc(NCCN2CCCC2)nc(SCCCCCCC)n1` [S7N13 D3], the “Absolute DNA transfection efficiency” value came to 17.9%. To `CCCCCCCCCCCCCNc1nc(NCCN2CCCCC2)nc(SCCCCCCC)n1` [S7N13 D4] belongs 6.4%; to `CCCCCCCCCCCCCNc1nc(NCCN2CCN(C)CC2)nc(SCCCCCCC)n1` [S7N13 D5], 23.3%; to `CCCCCCCCCCCCCNc1nc(NCCCN(C)C)nc(SCCCCCCC)n1` [S7N13 D6], 43.2%. The figure for `CCCCCCCCCCCCCNc1nc(NCCN(CC)CC)nc(SCCCCCCC)n1` [S7N13 D7] is 3.1%; for `CCCCCCCCCCCCCNc1nc(NCCCN2CCOCC2)nc(SCCCCCCC)n1` [S7N13 D8] it is 17.3%. The figure for `CCCCCCCCCCCCCNc1nc(NCCCN2CCN(C)CC2)nc(SCCCCCCC)n1` [S7N13 D9] is 36.9%. For the compound `CCCCCCCCCCCCCNc1nc(NCC2CCN(C)CC2)nc(SCCCCCCC)n1` [S7N13 D10], the “Absolute DNA transfection efficiency” value is 54.2%. The figure for `CCCCCCCCCCCCCCCNc1nc(NCCN(C)C)nc(SCCCCCCC)n1` [S7N15 D1] is 19.5%; for `CCCCCCCCCCCCCCCNc1nc(NCCN2CCOCC2)nc(SCCCCCCC)n1` [S7N15 D2] it is 14.1%. The figure for `CCCCCCCCCCCCCCCNc1nc(NCCN2CCCC2)nc(SCCCCCCC)n1` [S7N15 D3] is 31.4%. To `CCCCCCCCCCCCCCCNc1nc(NCCN2CCCCC2)nc(SCCCCCCC)n1` [S7N15 D4] belongs 4.9%. Consider `CCCCCCCCCCCCCCCNc1nc(NCCN2CCN(C)CC2)nc(SCCCCCCC)n1` [S7N15 D5], for which the “Absolute DNA transfection efficiency” value was determined as 20.4%. The figure for `CCCCCCCCCCCCCCCNc1nc(NCCCN(C)C)nc(SCCCCCCC)n1` [S7N15 D6] is 15.9%; for `CCCCCCCCCCCCCCCNc1nc(NCCN(CC)CC)nc(SCCCCCCC)n1` [S7N15 D7] it is 7.2%.

Consider `CCCCCCCCCCCCCCCNc1nc(NCCCN2CCOCC2)nc(SCCCCCCC)n1` [S7N15 D8], for which the “Absolute DNA transfection efficiency” value is given as 7.9%.

Regarding `CCCCCCCCCCCCCCCNc1nc(NCCCN2CCN(C)CC2)nc(SCCCCCCC)n1` [S7N15 D9], the “Absolute DNA transfection efficiency” value was found to be 17.6%. The figure for `CCCCCCCCCCCCCCCNc1nc(NCC2CCN(C)CC2)nc(SCCCCCCC)n1` [S7N15 D10] is 30.9%; for `CCCCCCCCCCCCCCCCNc1nc(NCCN(C)C)nc(SCCCCCCC)n1` [S7N16 D1] it is 20.0%; for `CCCCCCCCCCCCCCCCNc1nc(NCCN2CCOCC2)nc(SCCCCCCC)n1` [S7N16 D2] it is 12.9%. The figure for `CCCCCCCCCCCCCCCCNc1nc(NCCN2CCCC2)nc(SCCCCCCC)n1` [S7N16 D3] is 21.2%.

In the case of `CCCCCCCCCCCCCCCCNc1nc(NCCN2CCCCC2)nc(SCCCCCCC)n1` [S7N16 D4], the “Absolute DNA transfection efficiency” value stood at 2.9%. The figure for `CCCCCCCCCCCCCCCCNc1nc(NCCN2CCN(C)CC2)nc(SCCCCCCC)n1` [S7N16 D5] is 18.2%. To `CCCCCCCCCCCCCCCCNc1nc(NCCCN(C)C)nc(SCCCCCCC)n1` [S7N16 D6] belongs 26.2%.

In the case of `CCCCCCCCCCCCCCCCNc1nc(NCCN(CC)CC)nc(SCCCCCCC)n1` [S7N16 D7], the “Absolute DNA transfection efficiency” value worked out at 6.4%. The figure for `CCCCCCCCCCCCCCCCNc1nc(NCCCN2CCOCC2)nc(SCCCCCCC)n1` [S7N16 D8] is 8.1%; for `CCCCCCCCCCCCCCCCNc1nc(NCCCN2CCN(C)CC2)nc(SCCCCCCC)n1` [S7N16 D9] it is 12.9%.

Regarding `CCCCCCCCCCCCCCCCNc1nc(NCC2CCN(C)CC2)nc(SCCCCCCC)n1` [S7N16 D10], the “Absolute DNA transfection efficiency” value was found to be 15.8%. The figure for `CCCCCCCCCCCCCCCCCCNc1nc(NCCN(C)C)nc(SCCCCCCC)n1` [S7N18 D1] is 10.6%.

Take `CCCCCCCCCCCCCCCCCCNc1nc(NCCN2CCOCC2)nc(SCCCCCCC)n1` [S7N18 D2]: the “Absolute DNA transfection efficiency” value turned out to be 16.6%. As for `CCCCCCCCCCCCCCCCCCNc1nc(NCCN2CCCC2)nc(SCCCCCCC)n1` [S7N18 D3], the “Absolute DNA transfection efficiency” value turned out to be 16.1%. To `CCCCCCCCCCCCCCCCCCNc1nc(NCCN2CCCCC2)nc(SCCCCCCC)n1` [S7N18 D4] belongs 3.2%; to `CCCCCCCCCCCCCCCCCCNc1nc(NCCN2CCN(C)CC2)nc(SCCCCCCC)n1` [S7N18 D5], 8.2%; to `CCCCCCCCCCCCCCCCCCNc1nc(NCCCN(C)C)nc(SCCCCCCC)n1` [S7N18 D6], 18.4%. To `CCCCCCCCCCCCCCCCCCNc1nc(NCCN(CC)CC)nc(SCCCCCCC)n1` [S7N18 D7] belongs 3.9%; to `CCCCCCCCCCCCCCCCCCNc1nc(NCCCN2CCOCC2)nc(SCCCCCCC)n1` [S7N18 D8], 5.9%; to `CCCCCCCCCCCCCCCCCCNc1nc(NCCCN2CCN(C)CC2)nc(SCCCCCCC)n1` [S7N18 D9], 4.2%. The figure for `CCCCCCCCCCCCCCCCCCNc1nc(NCC2CCN(C)CC2)nc(SCCCCCCC)n1` [S7N18 D10] is 16.3%; for `CCCCCCCSc1nc(NCCN(C)C)nc(SCCCCCCC)n1` [S7S7 D1] it is 7.9%. For the compound `CCCCCCCSc1nc(NCCN2CCOCC2)nc(SCCCCCCC)n1` [S7S7 D2], the “Absolute DNA transfection efficiency” value stood at 2.2%.
